Columns and labels:
HCT-116 [1] = assay: In vitro cytotoxicity was determined by inhibition against HCT116 cell line proliferation after 72 hours of incubation; assay type: cell-based; details: Homo sapiens, HCT-116, 72 h
HCT-116 [2] = assay: cells; details: Homo sapiens
HCT-116 [3] = assay: Potency relative to paclitaxel in a tubulin polymerization assay in HCT116 cell line; assay type: functional, Homo sapiens
M109 = assay: In vivo cytotoxicity of intraperitoneally administered compound was determined against ip implanted murine M-109 lung carcinoma; NA means not active; assay type: organism-based; details: mouse

Row | Compound | IC50 (HCT-116 [1]) | IC50 (HCT-116 [2]) | Tubulin polymerization ratio (HCT-116 [3]) | T/C (M109)
1 | CC(=O)O[C@H]1C(=O)[C@@]2(C)C([C@H](OC(=O)c3ccccc3)[C@]3(O)C[C@H](OC(=O)[C@H](O)C(C=C(C)C)NC(=O)OC(C)(C)C)C(C)=C1C3(C)C)[C@]1(OC(=O)C3CC3)CO[C@@H]1C[C@@H]2O (some centres not stated) | 7.7 nM | 2.85 nM | 0.36 | Not Active
2 | CC(=O)O[C@H]1C(=O)[C@@]2(C)C([C@H](OC(=O)c3ccccc3)[C@]3(O)C[C@H](OC(=O)[C@H](O)C(NC(=O)c4ccccc4)c4ccccc4)C(C)=C1C3(C)C)[C@]1(OC(=O)c3ccc(F)cc3)CO[C@@H]1C[C@@H]2O (some centres not stated) | 790 nM | 198 nM | 61 | 
3 | C=CC(=O)O[C@@]12CO[C@@H]1C[C@H](O)[C@@]1(C)C(=O)[C@H](OC(C)=O)C3=C(C)[C@@H](OC(=O)[C@H](O)C(NC(=O)c4ccccc4)c4ccccc4)C[C@@](O)([C@@H](OC(=O)c4ccccc4)C12)C3(C)C (some centres not stated) | 6 nM | 1.5 nM | 0.42 | 
4 | CCCCCC(=O)O[C@@]12CO[C@@H]1C[C@H](O)[C@@]1(C)C(=O)[C@H](OC(C)=O)C3=C(C)[C@@H](OC(=O)[C@H](O)C(NC(=O)c4ccccc4)c4ccccc4)C[C@@](O)([C@@H](OC(=O)c4ccccc4)C12)C3(C)C (some centres not stated) | 6 nM | 1.5 nM | 3.4 | 
5 | CC(=O)O[C@H]1C(=O)[C@@]2(C)C([C@H](OC(=O)c3ccccc3)[C@]3(O)C[C@H](OC(=O)[C@H](O)C(NC(=O)OC(C)(C)C)c4ccco4)C(C)=C1C3(C)C)[C@]1(OC(=O)C3CCC3)CO[C@@H]1C[C@@H]2O (some centres not stated) | 1.9 nM | 0.48 nM | 0.48 | Not Active
6 | CCC(=O)O[C@@]12CO[C@@H]1C[C@H](O)[C@@]1(C)C(=O)[C@H](OC(C)=O)C3=C(C)[C@@H](OC(=O)[C@H](O)C(NC(=O)c4ccccc4)c4ccccc4)C[C@@](O)([C@@H](OC(=O)c4ccccc4)C12)C3(C)C (some centres not stated) | 2 nM | 0.5 nM | 1.5 | 
7 | CC(=O)O[C@H]1C(=O)[C@@]2(C)C([C@H](OC(=O)c3ccccc3)[C@]3(O)C[C@H](OC(=O)[C@H](O)C(NC(=O)c4ccccc4)c4ccccc4)C(C)=C1C3(C)C)[C@]1(OC(=O)c3ccccc3)CO[C@@H]1C[C@@H]2O (some centres not stated) | 410 nM | 103 nM | >60 | 
8 | CC(=O)O[C@H]1C(=O)[C@@]2(C)C([C@H](OC(=O)c3ccccc3)[C@]3(O)C[C@H](OC(=O)[C@H](O)C(NC(=O)c4ccccc4)c4ccccc4)C(C)=C1C3(C)C)[C@]1(OC(=O)C3CCC3)CO[C@@H]1C[C@@H]2O (some centres not stated) | 1.5 nM | 0.38 nM | 0.44 | Not Active
9 | CCCCC(=O)O[C@@]12CO[C@@H]1C[C@H](O)[C@@]1(C)C(=O)[C@H](OC(C)=O)C3=C(C)[C@@H](OC(=O)[C@H](O)C(NC(=O)c4ccccc4)c4ccccc4)C[C@@](O)([C@@H](OC(=O)c4ccccc4)C12)C3(C)C (some centres not stated) | 2 nM | 0.5 nM | 1.04 | 
10 | CCCOC(=O)O[C@@]12CO[C@@H]1C[C@H](O)[C@@]1(C)C(=O)[C@H](OC(C)=O)C3=C(C)[C@@H](OC(=O)[C@H](O)C(NC(=O)OC(C)(C)C)c4ccco4)C[C@@](O)([C@@H](OC(=O)c4ccccc4)C12)C3(C)C (some centres not stated) | 3 nM | 0.6 nM | 0.71 | Not Active
11 | C/C=C/C(=O)O[C@@]12CO[C@@H]1C[C@H](O)[C@@]1(C)C(=O)[C@H](OC(C)=O)C3=C(C)[C@@H](OC(=O)[C@H](O)C(NC(=O)c4ccccc4)c4ccccc4)C[C@@](O)([C@@H](OC(=O)c4ccccc4)C12)C3(C)C (some centres not stated) | 2.3 nM | 0.58 nM | 0.7 | 
12 | CC(=O)O[C@H]1C(=O)[C@@]2(C)C([C@H](OC(=O)c3ccccc3)[C@]3(O)C[C@H](OC(=O)[C@H](O)C(NC(=O)c4ccccc4)c4ccccc4)C(C)=C1C3(C)C)[C@]1(OC(=O)C3CCCC3)CO[C@@H]1C[C@@H]2O (some centres not stated) | 2 nM | 0.5 nM | 1.54 | 
13 | CC(=O)O[C@H]1C(=O)[C@@]2(C)C([C@H](OC(=O)c3ccccc3)[C@]3(O)C[C@H](OC(=O)[C@H](O)C(NC(=O)c4ccccc4)c4ccccc4)C(C)=C1C3(C)C)[C@]1(OC(=O)CF)CO[C@@H]1C[C@@H]2O (some centres not stated) | 7 nM | 1.75 nM | 1.2 | 
14 | CC(=O)O[C@H]1C(=O)[C@@]2(C)C([C@H](OC(=O)c3ccccc3)[C@]3(O)C[C@H](OC(=O)[C@H](O)C(NC(=O)c4ccccc4)c4ccccc4)C(C)=C1C3(C)C)[C@]1(O)CO[C@@H]1C[C@@H]2O (some centres not stated) | > 1000 nM | > 200 nM | 200 | 
15 | CCCOC(=O)O[C@@]12CO[C@@H]1C[C@H](O)[C@@]1(C)C(=O)[C@H](OC(C)=O)C3=C(C)[C@@H](OC(=O)[C@H](O)C(NC(=O)c4ccccc4)c4ccccc4)C[C@@](O)([C@@H](OC(=O)c4ccccc4)C12)C3(C)C (some centres not stated) | 2.6 nM | 0.67 nM | 0.76 | 
16 | CC(=O)O[C@H]1C(=O)[C@@]2(C)C([C@H](OC(=O)c3ccccc3)[C@]3(O)C[C@H](OC(=O)[C@H](O)C(NC(=O)c4ccccc4)c4ccccc4)C(C)=C1C3(C)C)[C@]1(OC(=O)n3ccnc3)CO[C@@H]1C[C@@H]2O (some centres not stated) | 803 nM | 251 nM | 263 | 
17 | CC(=O)O[C@H]1C(=O)[C@@]2(C)C([C@H](OC(=O)c3ccccc3)[C@]3(O)C[C@H](OC(=O)[C@H](O)C(NC(=O)c4ccccc4)c4ccccc4)C(C)=C1C3(C)C)[C@]1(OC(=O)N3CC3)CO[C@@H]1C[C@@H]2O (some centres not stated) | 15.6 nM | 6.5 nM |  | 
18 | CC(=O)O[C@H]1C(=O)[C@@]2(C)C([C@H](OC(=O)c3ccccc3)[C@]3(O)C[C@H](OC(=O)[C@H](O)C(NC(=O)c4ccccc4)c4ccccc4)C(C)=C1C3(C)C)[C@]1(OC(=O)C(C)C)CO[C@@H]1C[C@@H]2O (some centres not stated) | 5 nM | 1.25 nM | 0.46 | 
19 | CC(=O)O[C@H]1C(=O)[C@@]2(C)C([C@H](OC(=O)c3ccccc3)[C@]3(O)C[C@H](OC(=O)[C@H](O)C(C=C(C)C)NC(=O)c4ccccc4)C(C)=C1C3(C)C)[C@]1(OC(=O)C3CC3)CO[C@@H]1C[C@@H]2O (some centres not stated) | 1.7 nM | 0.61 nM | 0.36 | Not Active
20 | CC(=O)O[C@H]1C(=O)[C@@]2(C)C([C@H](OC(=O)c3ccccc3)[C@]3(O)C[C@H](OC(=O)[C@H](O)C(NC(=O)c4ccccc4)c4ccccc4)C(C)=C1C3(C)C)[C@]1(OC(=O)C(Cl)(Cl)Cl)CO[C@@H]1C[C@@H]2O (some centres not stated) | 4 nM | 1.1 nM | 0.68 | 
21 | CC(=O)O[C@H]1C(=O)[C@@]2(C)C([C@H](OC(=O)c3ccccc3)[C@]3(O)C[C@H](OC(=O)[C@H](O)C(NC(=O)c4ccccc4)c4ccccc4)C(C)=C1C3(C)C)[C@]1(OC(=O)NC3CCC3)CO[C@@H]1C[C@@H]2O (some centres not stated) | 9.2 nM | 2.3 nM | 0.76 | 

— ChEMBL document CHEMBL1153670 (Bioorg Med Chem Lett, 1995)
